Measurements: ChEMBL document CHEMBL5291721, “A preclinical secondary pharmacology resource illuminates target-adverse drug reaction associations of marketed drugs” (Nat Commun, 2023)
*1 amine or outer side, *2 acyl side, *3 side chain or, on linkers, in order; H or OH if unused. Where a SMILES comes first, the peptide text is derived from it. Bridges are numbered along the chain shown (N, C = ends). [ ]: non-standard residue; d: D form. The star is where a group is joined. hTyr(3S-OH,4S-OH,3'-OSO3H) = N[C@H](C(=O)O)[C@H](O)[C@@H](O)c1ccc(O)c(OS(=O)(=O)O)c1; Orn(4R-OH,5R-OH) = O=C([C@H](C[C@@H](O)[C@@H](O)N[*:3])N[*:1])[*:2]; Pro(3S-OH,4S-Me) = C[C@H]1CN[C@H](C(=O)O)[C@H]1O; X1 = CCCCCOc1ccc(-c2cc(-c3ccc(C(=O)*)cc3)no2)cc1; Gln(3R-OH) = NC(=O)C[C@@H](O)[C@H](N)C(=O)O; Hyp = O=C(O)[C@@H]1C[C@@H](O)CN1

What was measured:
[1] = molecular target: Beta-1 adrenergic receptor (Homo sapiens, UniProt P08588); assay type: functional
[2] = molecular target: Beta-2 adrenergic receptor (Homo sapiens, UniProt P07550); assay type: functional, cell-based
[3] = molecular target: T1, 5-hydroxytryptamine receptor 1A (Homo sapiens, UniProt P08908); assay type: functional, cell-based
T1 sequence (P08908 whole entry): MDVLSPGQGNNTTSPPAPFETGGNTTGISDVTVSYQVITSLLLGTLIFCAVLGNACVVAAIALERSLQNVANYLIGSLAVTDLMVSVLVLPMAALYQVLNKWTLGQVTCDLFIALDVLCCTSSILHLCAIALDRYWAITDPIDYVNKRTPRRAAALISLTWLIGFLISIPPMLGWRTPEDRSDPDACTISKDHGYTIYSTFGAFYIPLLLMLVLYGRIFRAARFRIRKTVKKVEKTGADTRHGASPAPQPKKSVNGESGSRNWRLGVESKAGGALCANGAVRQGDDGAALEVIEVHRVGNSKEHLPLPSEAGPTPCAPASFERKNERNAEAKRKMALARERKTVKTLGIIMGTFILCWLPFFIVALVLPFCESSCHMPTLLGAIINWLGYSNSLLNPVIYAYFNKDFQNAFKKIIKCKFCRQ

[4] = molecular target: 5-hydroxytryptamine receptor 2B (Homo sapiens, UniProt P41595); assay type: functional, cell-based
[5] = molecular target: Sodium-dependent dopamine transporter (Homo sapiens, UniProt Q01959)
[6] = molecular target: cGMP-inhibited 3',5'-cyclic phosphodiesterase 3A (Homo sapiens, UniProt Q14432); assay type: functional
[7] = molecular target: D(3) dopamine receptor (Homo sapiens, UniProt P35462)
[8] = molecular target: Voltage-dependent L-type calcium channel subunit alpha-1C (Rattus norvegicus, UniProt P22002); assay type: functional
[9] = molecular target: T2, Gamma-aminobutyric acid receptor subunit alpha-1 (Rattus norvegicus, UniProt P62813)
[10] = molecular target: T2, Gamma-aminobutyric acid receptor subunit alpha-1; assay type: functional
[11] = molecular target: Glutamate receptor ionotropic, NMDA 1 (Rattus norvegicus, UniProt P35439)
[12] = molecular target: T3, Glucocorticoid receptor (Homo sapiens, UniProt P04150)
T3 sequence (P04150 whole entry): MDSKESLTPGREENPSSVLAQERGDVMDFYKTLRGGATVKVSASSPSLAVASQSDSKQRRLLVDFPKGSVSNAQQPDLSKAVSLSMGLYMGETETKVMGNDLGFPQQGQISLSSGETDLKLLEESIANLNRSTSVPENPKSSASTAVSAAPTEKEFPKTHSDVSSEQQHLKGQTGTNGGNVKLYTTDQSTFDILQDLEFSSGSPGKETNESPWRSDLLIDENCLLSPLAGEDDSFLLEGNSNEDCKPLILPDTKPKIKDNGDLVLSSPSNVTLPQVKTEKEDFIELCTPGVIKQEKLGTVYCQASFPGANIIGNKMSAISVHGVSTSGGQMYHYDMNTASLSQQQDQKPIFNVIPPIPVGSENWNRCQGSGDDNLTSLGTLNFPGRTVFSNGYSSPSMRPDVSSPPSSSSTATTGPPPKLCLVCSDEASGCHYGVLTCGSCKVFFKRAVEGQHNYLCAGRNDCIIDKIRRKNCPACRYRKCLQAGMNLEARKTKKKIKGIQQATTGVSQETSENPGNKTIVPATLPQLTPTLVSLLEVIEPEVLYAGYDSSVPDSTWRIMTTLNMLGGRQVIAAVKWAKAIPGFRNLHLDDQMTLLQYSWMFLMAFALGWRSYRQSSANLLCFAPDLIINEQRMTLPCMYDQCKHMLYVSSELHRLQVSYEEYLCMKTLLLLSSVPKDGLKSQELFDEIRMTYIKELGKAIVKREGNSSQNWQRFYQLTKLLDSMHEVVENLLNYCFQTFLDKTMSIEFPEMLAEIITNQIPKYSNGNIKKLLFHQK

[13] = molecular target: T4, Alpha-1A adrenergic receptor (Homo sapiens, UniProt P35348); assay type: functional, cell-based
T4 sequence (P35348 whole entry): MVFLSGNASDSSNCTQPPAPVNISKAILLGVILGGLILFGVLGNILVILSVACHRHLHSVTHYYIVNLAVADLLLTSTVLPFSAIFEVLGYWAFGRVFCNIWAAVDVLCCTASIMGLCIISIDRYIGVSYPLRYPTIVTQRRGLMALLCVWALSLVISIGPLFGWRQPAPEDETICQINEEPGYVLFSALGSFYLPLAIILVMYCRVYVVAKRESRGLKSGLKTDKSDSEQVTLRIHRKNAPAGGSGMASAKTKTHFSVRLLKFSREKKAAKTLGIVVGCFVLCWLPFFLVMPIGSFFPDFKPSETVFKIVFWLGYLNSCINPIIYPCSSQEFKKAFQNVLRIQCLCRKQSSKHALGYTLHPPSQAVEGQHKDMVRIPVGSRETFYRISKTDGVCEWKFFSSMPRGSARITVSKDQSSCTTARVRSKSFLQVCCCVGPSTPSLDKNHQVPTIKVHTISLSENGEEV

[14] = molecular target: T5, Estrogen receptor (Homo sapiens, UniProt P03372)
T5 sequence (P03372 whole entry): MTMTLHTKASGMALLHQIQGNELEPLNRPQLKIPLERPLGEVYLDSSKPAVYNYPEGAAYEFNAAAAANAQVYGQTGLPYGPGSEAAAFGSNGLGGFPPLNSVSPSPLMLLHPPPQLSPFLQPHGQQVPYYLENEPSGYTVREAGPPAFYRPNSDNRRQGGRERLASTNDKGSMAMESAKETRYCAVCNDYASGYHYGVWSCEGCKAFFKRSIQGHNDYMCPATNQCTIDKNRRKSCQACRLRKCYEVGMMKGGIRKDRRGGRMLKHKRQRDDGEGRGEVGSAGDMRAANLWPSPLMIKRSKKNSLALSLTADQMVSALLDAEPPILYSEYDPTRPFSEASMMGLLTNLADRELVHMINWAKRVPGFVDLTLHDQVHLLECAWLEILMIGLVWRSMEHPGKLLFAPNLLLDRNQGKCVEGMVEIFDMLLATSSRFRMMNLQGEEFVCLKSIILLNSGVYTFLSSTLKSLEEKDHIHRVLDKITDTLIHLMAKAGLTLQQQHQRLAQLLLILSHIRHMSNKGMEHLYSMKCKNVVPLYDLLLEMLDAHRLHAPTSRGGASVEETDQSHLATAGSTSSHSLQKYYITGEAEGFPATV
Note: assay procedure not described here.

Sequence of Beta-1 adrenergic receptor (P08588 whole entry): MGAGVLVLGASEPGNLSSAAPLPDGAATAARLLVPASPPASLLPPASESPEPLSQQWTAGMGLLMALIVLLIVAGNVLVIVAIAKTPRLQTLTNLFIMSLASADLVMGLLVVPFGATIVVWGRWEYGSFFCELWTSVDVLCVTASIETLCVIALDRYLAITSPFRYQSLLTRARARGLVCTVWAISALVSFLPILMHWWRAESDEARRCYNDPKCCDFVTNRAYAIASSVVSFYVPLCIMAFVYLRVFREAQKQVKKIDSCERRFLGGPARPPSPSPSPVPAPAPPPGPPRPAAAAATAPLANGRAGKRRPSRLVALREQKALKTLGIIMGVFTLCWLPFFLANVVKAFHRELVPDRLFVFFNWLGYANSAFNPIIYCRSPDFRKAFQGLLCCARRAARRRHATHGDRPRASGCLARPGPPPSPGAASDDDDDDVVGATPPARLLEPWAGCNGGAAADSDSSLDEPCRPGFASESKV
Sequence of D(3) dopamine receptor (P35462 whole entry): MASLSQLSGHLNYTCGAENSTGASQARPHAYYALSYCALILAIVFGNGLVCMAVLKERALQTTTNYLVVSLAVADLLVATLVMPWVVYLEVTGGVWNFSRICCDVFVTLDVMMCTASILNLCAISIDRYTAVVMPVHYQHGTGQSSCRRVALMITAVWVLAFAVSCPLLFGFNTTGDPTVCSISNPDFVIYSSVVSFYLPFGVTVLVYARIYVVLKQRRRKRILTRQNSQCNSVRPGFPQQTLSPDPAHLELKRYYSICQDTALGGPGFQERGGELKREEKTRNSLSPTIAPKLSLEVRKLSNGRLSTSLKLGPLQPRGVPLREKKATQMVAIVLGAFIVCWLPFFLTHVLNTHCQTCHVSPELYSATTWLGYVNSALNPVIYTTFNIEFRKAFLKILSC
Sequence of 5-hydroxytryptamine receptor 2B (P41595 whole entry): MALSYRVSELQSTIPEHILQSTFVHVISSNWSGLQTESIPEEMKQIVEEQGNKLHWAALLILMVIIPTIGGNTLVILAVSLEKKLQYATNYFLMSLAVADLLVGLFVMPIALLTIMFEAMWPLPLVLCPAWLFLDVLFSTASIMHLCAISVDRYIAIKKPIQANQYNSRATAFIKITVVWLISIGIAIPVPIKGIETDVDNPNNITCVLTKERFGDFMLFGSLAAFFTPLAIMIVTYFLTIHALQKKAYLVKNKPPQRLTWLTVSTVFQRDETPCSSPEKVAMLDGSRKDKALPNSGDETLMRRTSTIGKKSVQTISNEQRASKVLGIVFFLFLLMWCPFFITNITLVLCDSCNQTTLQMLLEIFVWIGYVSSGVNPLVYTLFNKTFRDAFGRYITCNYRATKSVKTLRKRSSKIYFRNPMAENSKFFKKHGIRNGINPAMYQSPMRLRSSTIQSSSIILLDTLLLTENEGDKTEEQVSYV
Sequence of Sodium-dependent dopamine transporter (Q01959 whole entry): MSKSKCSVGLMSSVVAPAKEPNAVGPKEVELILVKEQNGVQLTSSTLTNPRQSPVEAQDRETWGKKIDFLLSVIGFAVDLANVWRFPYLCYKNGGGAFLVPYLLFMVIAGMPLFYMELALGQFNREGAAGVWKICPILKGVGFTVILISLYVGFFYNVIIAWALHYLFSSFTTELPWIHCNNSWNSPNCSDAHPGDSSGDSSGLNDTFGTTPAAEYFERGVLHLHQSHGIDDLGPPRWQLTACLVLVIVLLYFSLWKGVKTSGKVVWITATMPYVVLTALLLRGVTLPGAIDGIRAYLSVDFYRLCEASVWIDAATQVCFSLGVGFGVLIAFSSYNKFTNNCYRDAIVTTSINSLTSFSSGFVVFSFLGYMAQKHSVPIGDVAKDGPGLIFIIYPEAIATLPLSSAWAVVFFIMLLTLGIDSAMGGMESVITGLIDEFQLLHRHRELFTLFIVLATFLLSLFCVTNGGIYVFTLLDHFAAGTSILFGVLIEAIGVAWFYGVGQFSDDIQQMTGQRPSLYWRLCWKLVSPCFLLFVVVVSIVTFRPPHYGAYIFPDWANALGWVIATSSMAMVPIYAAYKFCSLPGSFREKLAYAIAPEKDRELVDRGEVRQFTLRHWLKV
Sequence of Beta-2 adrenergic receptor (P07550 whole entry): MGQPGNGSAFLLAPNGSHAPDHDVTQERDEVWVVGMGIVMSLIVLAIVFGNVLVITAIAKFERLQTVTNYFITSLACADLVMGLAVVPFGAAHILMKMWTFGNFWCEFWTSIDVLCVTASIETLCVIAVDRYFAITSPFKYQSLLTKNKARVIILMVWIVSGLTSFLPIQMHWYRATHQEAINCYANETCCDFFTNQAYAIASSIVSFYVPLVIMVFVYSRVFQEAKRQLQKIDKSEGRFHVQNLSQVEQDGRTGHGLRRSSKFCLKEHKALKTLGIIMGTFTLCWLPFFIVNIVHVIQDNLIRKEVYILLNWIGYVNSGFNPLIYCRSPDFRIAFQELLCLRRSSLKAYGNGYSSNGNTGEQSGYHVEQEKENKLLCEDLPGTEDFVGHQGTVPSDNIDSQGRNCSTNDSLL
Sequence of cGMP-inhibited 3',5'-cyclic phosphodiesterase 3A (Q14432 whole entry): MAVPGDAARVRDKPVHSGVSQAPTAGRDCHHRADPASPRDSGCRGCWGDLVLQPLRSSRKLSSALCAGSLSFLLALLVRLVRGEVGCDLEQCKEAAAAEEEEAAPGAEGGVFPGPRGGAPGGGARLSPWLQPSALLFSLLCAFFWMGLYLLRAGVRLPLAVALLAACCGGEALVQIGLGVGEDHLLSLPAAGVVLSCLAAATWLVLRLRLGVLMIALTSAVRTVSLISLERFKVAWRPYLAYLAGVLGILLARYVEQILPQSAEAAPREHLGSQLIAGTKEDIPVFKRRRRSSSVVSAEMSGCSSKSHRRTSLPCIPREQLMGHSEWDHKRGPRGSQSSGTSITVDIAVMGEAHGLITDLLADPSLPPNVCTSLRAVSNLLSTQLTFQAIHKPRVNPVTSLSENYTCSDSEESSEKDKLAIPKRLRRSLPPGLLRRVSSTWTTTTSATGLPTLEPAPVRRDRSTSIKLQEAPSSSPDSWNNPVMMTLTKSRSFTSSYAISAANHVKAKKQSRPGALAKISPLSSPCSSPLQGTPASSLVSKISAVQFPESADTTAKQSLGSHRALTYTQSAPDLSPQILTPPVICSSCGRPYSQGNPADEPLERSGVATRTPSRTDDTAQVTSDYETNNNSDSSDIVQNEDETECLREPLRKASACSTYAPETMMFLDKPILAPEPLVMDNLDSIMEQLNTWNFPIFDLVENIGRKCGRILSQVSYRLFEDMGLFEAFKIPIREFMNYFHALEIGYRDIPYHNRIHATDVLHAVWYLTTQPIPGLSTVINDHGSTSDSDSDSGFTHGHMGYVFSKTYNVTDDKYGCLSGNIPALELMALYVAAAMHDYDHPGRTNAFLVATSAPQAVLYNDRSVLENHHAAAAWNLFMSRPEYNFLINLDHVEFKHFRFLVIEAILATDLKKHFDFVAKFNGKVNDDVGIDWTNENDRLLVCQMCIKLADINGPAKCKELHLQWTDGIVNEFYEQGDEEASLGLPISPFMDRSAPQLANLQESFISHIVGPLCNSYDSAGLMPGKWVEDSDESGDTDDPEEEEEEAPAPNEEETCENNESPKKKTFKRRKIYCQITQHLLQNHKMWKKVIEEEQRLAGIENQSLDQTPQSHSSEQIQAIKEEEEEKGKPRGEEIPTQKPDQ
T2 sequence (P62813 whole entry): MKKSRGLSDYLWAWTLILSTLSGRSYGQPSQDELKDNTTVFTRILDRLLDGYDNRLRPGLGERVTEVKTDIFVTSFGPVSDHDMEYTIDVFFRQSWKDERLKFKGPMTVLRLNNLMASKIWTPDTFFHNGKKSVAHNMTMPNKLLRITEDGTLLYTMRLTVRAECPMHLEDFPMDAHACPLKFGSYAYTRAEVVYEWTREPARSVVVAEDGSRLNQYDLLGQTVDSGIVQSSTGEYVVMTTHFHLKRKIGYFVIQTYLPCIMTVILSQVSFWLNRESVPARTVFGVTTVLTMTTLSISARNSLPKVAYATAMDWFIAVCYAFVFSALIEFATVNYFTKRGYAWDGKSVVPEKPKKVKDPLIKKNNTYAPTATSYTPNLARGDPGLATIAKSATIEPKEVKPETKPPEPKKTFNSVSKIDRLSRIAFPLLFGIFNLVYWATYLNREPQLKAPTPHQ

CC(=N)N1CC[C@H](SC2=C(C(=O)O)N3C(=O)[C@H]([C@@H](C)O)[C@H]3C2)C1 was tested, and the AC50 [1] was 230 µM, the AC50 [2] was over 300 µM and the AC50 [3] was over 300 µM. For the same molecule, the AC50 [4] was over 300 µM, the AC50 [5] was 270 µM and the AC50 [6] was over 300 µM. For the same molecule, the AC50 [7] was over 300 µM.

Work on O=C1CN2Cc3c(ccc(Cl)c3Cl)N=C2N1 [ANAGRELIDE] yielded an AC50 [1] of over 10 µM, an AC50 [2] of over 30 µM and an AC50 [8] of over 10 µM. It also gave an AC50 [9] of over 10 µM, an AC50 [10] of over 10 µM and an AC50 [11] of over 10 µM. The AC50 [4] was over 10 µM, the AC50 [12] was over 30 µM and the AC50 [5] was over 30 µM. The AC50 [7] was over 30 µM.

With C[C@]12CCC(=O)C=C1CC[C@@H]1[C@@H]2[C@@H](O)C[C@@]2(C)[C@H]1CC[C@]2(O)C(=O)COC(=O)CCC(=O)O [HYDROCORTISONE HEMISUCCINATE ANHYDROUS] the AC50 [13] was over 30 µM and the AC50 [14] was over 30 µM.

N=C(N)NCc1cccc([123I])c1 [IOBENGUANE I 123] gave an AC50 [13] of over 30 µM and an AC50 [14] of over 30 µM.

In the case of CC(C)(N)C(=O)N[C@H](Cc1c[nH]c2ccccc12)C(=O)N[C@H](Cc1c[nH]c2ccccc12)NC=O [MACIMORELIN], the AC50 [13] is reported as over 30 µM and the AC50 [14] is reported as over 30 µM.

Work on C=C1c2c(Cl)ccc(O)c2C(=O)C2=C(O)[C@]3(O)C(=O)C(C(N)=O)=C(O)[C@@H](N(C)C)[C@@H]3[C@@H](O)[C@H]12 [MECLOCYCLINE] yielded an AC50 [13] of over 30 µM and an AC50 [14] of over 30 µM.

Molecule Cc1cc2c(OCC(O)CNC(C)C)cccc2[nH]1 (stereo unspecified) [MEPINDOLOL] has an AC50 [13] of over 30 µM and an AC50 [14] of over 30 µM.

CC(=O)/N=c1/sc(S(N)(=O)=O)nn1C [METHAZOLAMIDE] gave an AC50 [13] of over 30 µM, an AC50 [1] of over 10 µM and an AC50 [8] of over 10 µM. It also gave an AC50 [14] of over 30 µM, an AC50 [9] of over 10 µM and an AC50 [10] of over 10 µM. For the same molecule, the AC50 [11] was over 10 µM, the AC50 [3] was over 10 µM and the AC50 [4] was over 10 µM. For the same molecule, the AC50 [12] was over 10 µM, the AC50 [5] was over 10 µM and the AC50 [6] was over 30 µM. For the same molecule, the AC50 [7] was over 30 µM.

CC[C@@H](CO)NC(=O)[C@@H]1C=C2c3cccc4[nH]cc(c34)C[C@H]2N(C)C1 [METHYLERGONOVINE] showed an AC50 [2] of over 30 µM, an AC50 [9] of over 30 µM and an AC50 [10] of over 30 µM. For the same molecule, the AC50 [11] was over 30 µM, the AC50 [12] was over 30 µM and the AC50 [5] was over 30 µM. It also gave an AC50 [6] of over 30 µM and an AC50 [7] of 0.29 µM.

For CCCCCOc1ccc(-c2cc(-c3ccc(C(=O)N[C@H]4C[C@@H](O)[C@@H](O)NC(=O)[C@@H]5[C@@H](O)[C@@H](C)CN5C(=O)[C@H]([C@H](O)CC(N)=O)NC(=O)[C@H]([C@H](O)[C@@H](O)c5ccc(O)c(OS(=O)(=O)O)c5)NC(=O)[C@@H]5C[C@@H](O)CN5C(=O)[C@H]([C@@H](C)O)NC4=O)cc3)no2)cc1 [MICAFUNGIN] (X1-[Orn(4R-OH,5R-OH)]T[Hyp][hTyr(3S-OH,4S-OH,3'-OSO3H)][Gln(3R-OH)][Pro(3S-OH,4S-Me)]; lactam 1-C), the AC50 [13] was over 30 µM and the AC50 [14] was 7.25 µM.

Molecule CCOc1cc(N)c(Cl)cc1C(=O)NCC1CN(Cc2ccc(F)cc2)CCO1 (stereo unspecified) [MOSAPRIDE] has an AC50 [13] of over 30 µM and an AC50 [14] of over 30 µM.

In the case of CCOc1ccc2ccccc2c1C(=O)N[C@@H]1C(=O)N2[C@@H]1SC(C)(C)[C@@H]2C(=O)O [NAFCILLIN], the AC50 [13] is reported as over 30 µM and the AC50 [14] is reported as over 30 µM.

CN1CCC[C@H]1c1cccnc1 [NICOTINE] showed an AC50 [13] of over 30 µM and an AC50 [14] of over 30 µM.
